Laboratory results from patent publication US9549988B2, “Pharmaceutical compounds targeted by MIF affinity-tethered moieties” (RJS Biologics LLC, priority 2013, dated 2017).
Like-named read-outs stand apart in the source and are kept apart here. Values belong to the molecule of their own block, whether it stands above or below them.

What was measured:
[1] = tested on: large cell immunoblastic lymphoma cell lines (ATCC SR); assay: WST-8 cellular proliferation assay, ATCC SR lymphoma cells; format: cell-based; conditions: Table 2; 1° fibroblasts versus ATCC SR cancer cells
Protocol: (§1) Assays were performed according to the manufactures instructions.

[2] = tested on: Normal Human Adult Dermal Fibroblasts (ATCC PCS-201-012); assay: WST-8 cellular proliferation assay, primary dermal fibroblasts; format: cell-based; conditions: for IC50: read-out: IC50 1° Fibroblasts, Table 4, EGFRi derivatives
Protocol: as §1

[3] = tested on: THP-1 leukemia cells mixed with non-cancerous PBMC cells; assay: Flow cytometry drug uptake in mixed THP-1 / PBMC population; format: cell-based, human; conditions: FIG. 21; THP-1 added to PBMC; 0.8 μM; 2-2.5 h; PE channel
Protocol: This example illustrates an in vitro experiment using predictive models of cancer to show the cellular specificity and potential therapeutic utility of the inventive compounds. The human leukemic cell line THP-1 was grown in RPMI 1640 medium with penicillin, streptomycin, and containing 25 mM Hepes, 0.05 mM 2-mercaptoethanol, 10% fetal bovine serum and 2 mM L-glutamine. Cells washed 2× with Gibco Life Sciences (Grand Island, N.Y.) AIM-V serum free medium and then were inoculated into 96 well microtiter plates in 100 μL at plating densities ranging from 25,000 to 100,000 cells/well. Five to ten million frozen peripheral blood mononuclear cells (PBMCs) (Astarte Biologics, LLC. (Redmond, Wash.)) in a solution of 10% DMSO, 2% human serum albumin in phosphate buffered saline were thawed and immediately washed in AIM-V media. An approximately equal number of these cells (25,000 to 100,000 cells/well) were added to the experimental plate. Doxorubicin was added to a final concentration of 0.8 μM. The microtiter plates were incubated at 37° C., 5% CO2, 95% air and 100% relative humidity for 2-2.5 h then drug uptake was quantified by flow cytometry for example using a BD FACSCanto II (San Jose, Calif.). Doxorubicin uptake was evaluated in the PE channel. Individual cell populations were identified by size, shape and through the use of dye labeled antibodies.

[4] = tested on: THP-1 leukemia cells; assay: Flow cytometry uptake by THP-1 cells in presence of ISO-1; format: cell-based, human; conditions: FIG. 22, 2 hrs at 37° C.
Protocol: This example illustrates an in vitro experiment using predictive models of cancer to show the cellular specificity and potential therapeutic utility of the inventive compounds. The human leukemic cell line THP-1 was grown AIM-V serum free medium Gibco Life Sciences (Grand Island, N.Y.). […] Then the washed THP-1 cells were added to the drug dilutions to start the experiment ˜75,000 cells per well. Test compounds were incubated 2 hrs at 37° C., then the plate was read by flow cytometry BD Canto 2 (80 μl˜25,000 cells). A population of Single Round “average” cells was selected by FSC and SSC—constituting %70 of the total cell population examined. The amount of doxorubicin uptake was evaluated for this population in the PE channel.

[5] = tested on: large cell lung cancer cell lines (NCI-H460); assay: WST-8 cellular proliferation assay, NCI-H460 lung cancer cells; format: cell-based; conditions: for IC50: Table 4, EGFRi derivatives, WST-8, read-out: IC50 Cancer Cells ATCC NCI-H460; for Selectivity: Table 4, 1° fibroblasts versus NCI-H460 cancer cells
[6] = tested on: Human tumor cell lines of a cancer screening panel; assay: Sulforhodamine B (SRB) cellular proliferation assay, cancer screening panel; format: cell-based; conditions: 10 μM
Protocol: This example illustrates several in vitro experiments in predictive models of cancer to show the potential therapeutic utility of the disclosed compounds. Human tumor cell lines of a cancer screening panel were grown in RPMI 1640 medium containing 5% fetal bovine serum and 2 mM L-glutamine. Cells were inoculated into 96 well microtiter plates in 100 μL at plating densities ranging from 5,000 to 40,000 cells/well depending on the doubling time of individual cell lines. After cell inoculation, the microtiter plates were incubated at 37° C., 5% CO2, 95% air and 100% relative humidity for 24 h prior to addition of experimental drugs.
After 24 h, two plates of each cell line were fixed in situ with trichloroacetic acid (TCA), to represent a measurement of the cell population for each cell line at the time of drug addition (T=zero). Experimental drugs were solubilized in dimethyl sulfoxide at 400-fold the desired final maximum test concentration and stored frozen prior to use. […]
Following drug addition, the plates were incubated for an additional 48 h at 37° C., 5% CO2, 95% air, and 100% relative humidity. […] Bound stain was subsequently solubilized with 10 mM trizma base, and the absorbance was read on an automated plate reader at a wavelength of 515 nm. […] Using the seven absorbance measurements [time zero, (T=zero), control growth, (C), and test growth in the presence of drug at the five concentration levels (Ti)], the percentage growth was calculated at each of the drug concentrations levels.
Percentage growth inhibition was calculated as: [(Ti−Tzero)/(C−Tzero)]×100 for concentrations for which Ti>/=Tzero [(Ti−Tzero)/Tzero]×100 for concentrations for which Ti<Tzero. Three dose response parameters were calculated for each experimental agent. […] The drug concentration resulting in total growth inhibition (TGI) was calculated from Ti=Tzero. […] The same procedures were used to create FIGS. 19 and 20 except a single 10 μM data point was recorded for each cell line.

[7] = FIG. 20, 14 diverse cancer cell lines

SMILES: COc1cccc2c1C(=O)c1c(O)c3c(c(O)c1C2=O)C[C@@](O)(C(=O)CO)C[C@@H]3O[C@H]1C[C@H](N)[C@H](O)[C@H](C)O1 [Doxorubicin]
Selectivity [1]: 26
IC50 1° Fibroblasts ([2]; Table 2, Doxorubicin derivatives): 0.185 ± 0.5 µM
preferential cellular uptake by cancer cells over non-cancerous cells [3]: little preference for the cancer cell line
inhibition of cellular uptake by ISO-1 [4]: not inhibited

IC50 ([5]; Homo sapiens, NCI-H460): 3.6 µM
SMILES: COc1cc2c(Nc3ccc(F)c(Cl)c3)ncnc2cc1OCCOCCNC(=O)COc1ccc(Cn2c(=O)oc3ccc(C)cc32)cc1O [RJS012_1]
IC50 ([2]; Homo sapiens, Fibroblast): 6.7 µM
Selectivity [5]: 1.9

SMILES: Cc1ccc2oc(=O)n(Cc3ccc(OCC(=O)O)c(O)c3)c2c1 [compound 7, (2-hydroxy-4-[(5-methyl-2-oxo-1,3-benzoxazol-3(2H)-yl)methyl]phenoxy)acetic acid]
inhibition of cancer cell growth (average % inhibition) ([6]; FIG. 19, 17 cancer cell lines): little if any potency
inhibition of cancer cell growth (average % inhibition) [6, 7]: little potency

SMILES: Cc1ccc2oc(=O)n(Cc3ccc(OCC(=O)NCCC[C@@H]4O[C@@H]5O[C@@]6(C)CC[C@H]7[C@H](C)CC[C@@H]([C@H]4C)[C@@]57OO6)c(O)c3)c2c1 [compound 11, 2-(2-hydroxy-4-((5-methyl-2-oxobenzo[d]oxazol-3(2H)-yl)methyl)phenoxy)-N-(3-((3R,5aS,6R,8aS,9R,10S,12R,12aR)-3,6,9-trimethyldecahydro-12H-3,12-epoxy[1,2]dioxepino[4,3-i]isochromen-10-yl)propyl)acetamide]
inhibition of cancer cell growth (average % inhibition) [6, 7]: substantial anti-cancer activity

IC50 [5]: 10.6 µM
SMILES: COc1cc2ncnc(Nc3ccc(F)c(Cl)c3)c2cc1NC(=O)/C=C/CN1CCCCC1 [Docomitinib (PF-00299804), Docomitinib]
IC50 [2]: 0.89 µM
Selectivity [5]: 0.08

IC50 ([5]; Homo sapiens, NCI-H460): 12.6 µM
SMILES: C#Cc1cccc(Nc2ncnc3cc(OCCOC)c(OCCOC)cc23)c1 [Tarceva ® (Erlotinib), Erlotinib]
IC50 ([2]; Homo sapiens, Fibroblast): 4.7 µM
Selectivity [5]: 0.37
